This is an account of results in patent publication US12390446B2 (RESEARCH TRIANGLE INSTITUTE, priority 2017, dated 2025).

Several values for one entry are separate records, joined by “and”; a condition that tells them apart may be missing. Equal entries are not always repeated. Entries after “also recorded” stand apart in the source; their conditions may differ.

The test system of one data set is P-gp (MDR1). Nature of the data set: Bidirectional MDCK-MDR1 permeability assay. Format: in vitro ADME. Particulars: dog, MDCK-MDR1, pH 7.4; read-out: efflux ratio (PB→A/PA→B). On the procedure:
(§1) Kinetic solubility and bidirectional MDCK-MDR1 permeability assays of the compounds were performed by Paraza Pharma Inc. (Montreal, Canada) according to their standard protocols.
(§2) Bidirectional MDCK-MDR1 permeability assay. MDCK-mdr1 cells at passage 5 were seeded onto permeable polycarbonate supports in 12-well Costar@ Transwell® plates and allowed to grow and differentiate for 3 days. On day 3, culture medium (DMEM supplemented with 10% FBS) was removed from both sides of the transwell inserts and cells were rinsed with warm HBSS. After the rinse step, the chambers were filled with warm transport buffer (HBSS containing 10 mM HEPES, 0.25% BSA, pH 7.4) and the plates were incubated at 37° C. for 30 min prior to TEER (Trans Epithelial Electric Resistance) measurements.
(§3) The buffer in the donor chamber (apical side for A-to-B assay, basolateral side for B-to-A assay) was removed and replaced with the working solution (10 μM test article in transport buffer). The plates were then placed at 37° C. under light agitation. At designated time points (30, 60 and 90 min), an aliquot of transport buffer from the receiver chamber was removed and replenished with fresh transport buffer. Samples were quenched with ice-cold ACN containing internal standard and then centrifuged to pellet protein. Resulting supernatants are further diluted with 50/50 ACN/H2O(H2O only for Atenolol) and submitted for LC-MS/MS analysis. Reported apparent permeability (Papp) values were calculated from single determination. Atenolol and propranolol were tested as low and […] permeability references.
(§4) The apparent permeability (Papp, measured in cm/s) of a compound is determined according to the following formula:
(§5) [formula] • dQ/dt is the net rate of appearance in the receiver compartment • A is the area of the Transwell measured in cm^2 (1.12 cm^2) • Ci is the initial concentration of compound added to the donor chamber • 60 is the conversion factor for minutes to seconds. In Vivo Pharmacology.

A further data set deals with MDCK-MDR1 cells. Nature of the data set: Bidirectional MDCK-MDR1 permeability assay. Type of data set: in vitro ADME. How it is done: as §1, §2, §3, §4, §5
For another data set, the system named is Sprague-Dawley rats. The data set can be described thus: Fentanyl-induced hyperalgesia model in rats (von Frey paw withdrawal threshold). Particulars: day 1 after fentanyl, i.p., cumulative doses 3.2-32 mg/kg. Format: in vivo, rat.
Data set [1] deals with NPFF2 receptor (human NPFFR2-CHO cells) (Homo sapiens, UniProt Q9Y5X5). The data set can be described thus: Lance cAMP functional Ke assay, NPFF2. Type of data set: cell-based. On the procedure:
as §1
(§6) cAMP assay. Stable human NPFFR1-CHO (ES-491-C) and NPFFR2-CHO (ES-490-C) cell lines were purchased from PerkinElmer and used with the Lance@ Ultra kit (TRF0262) to detect cAMP accumulation in low volume 96-well plates. Stimulation buffer containing 1× HBSS, 5 mM HEPES, 0.1% BSA stabilizer, and 0.5 mM IBMX was prepared and titrated to 7.4 at room temperature.
(§7) A single concentration of each test compound was prepared at 4× the desired final concentration in 2% DMSO/stimulation buffer and 5 μL was added to the assay plate.
(§8) Cells were lifted with versene and spun at 270 g for 10 minutes. The cell pellet was resuspended in stimulation buffer and 4,000 cells (10 μL) were added to each well. After incubating for 30 min at RT, Eu-cAMP tracer and uLIGHT-anti-cAMP working solutions were added per the manufacturer's instructions. After incubation at RT for 1 hour, the TR-FRET signal (ex 337 nm) was read on a CLARIOstar multimode plate reader (BMG Biotech, Cary NC).
(§9) Fluorescence values at 665 nm were plotted against the log of compound concentration using a nonlinear regression analysis to generate EC50 values (GraphPad Prism, GraphPad Software, Inc., San Diego CA). Ke values were calculated using the same equation as described in the calcium mobilization methods.

Data set [2] deals with T1, NPFF2 receptor (human NPFFR2 in CHO-RD-HGA16 cells) (Homo sapiens, UniProt Q9Y5X5).
T1 construct: expressed in transfected cells
Nature of the data set: Calcium mobilization functional Ke assay, NPFF2. Format: cell-based. For orientation: Calcium assays in cells follow changes in intracellular calcium, usually with a dye or a luminescent sensor.

Data set [3] concerns the target T2, NPFF1 receptor (CHO-hNPFFR1 membranes) (Homo sapiens, UniProt Q9GZQ6).
T2 construct: purchased PerkinElmer RBHNF1M400UA; host or cells: CHO cell membranes
The data set can be described thus: Radioligand binding assay, [125I]NPFF, NPFF1. On the procedure: (§10) Radioligand binding assay. Binding assays were performed according to PerkinElmer's protocol in a final volume of 500 μL of assay buffer (50 mM Tris-HCl, 1 mM MgCl2, 60 mM NaCl, 0.5% BSA, pH 7.4). […] After incubating at 27° C. for 120 minutes, the binding assay was terminated by vacuum filtration onto Unifilter GF/C glass-fiber filters (pre-soaked in 0.1% PEI) using a Brandel (Gaithersburg, MD, USA) 96-well harvester, followed by three washes with ice-cold wash buffer (50 mM Tris-HCl, 0.1% BSA, pH 7.4). The filter plate was dried for 1 hr at 55° C. Microscint 20 (50 μL) was added to each well and filter-bound radioactivity was counted on a Packard TopCount NXT microplate scintillation and luminescence counter.
(§11) Data were fit to a one site (fit Ki) competitive binding model, log EC50=log(10^log Ki*(1+RadioligandNM/HotKdNM)), to generate Ki values for the test compounds using GraphPad Prism (GraphPad Software, Inc., San Diego CA).

Another data set can be described thus: Kinetic solubility assay. Type of data set: physicochemical. On the procedure: as §1
Kinetic solubility assay. A 10 μL of test compound stock solution (10 mM DMSO) was combined with 490 μL of PBS (potassium phosphate monobasic 1 mM, sodium phosphate dibasic 3 mM and sodium chloride 155 mM buffer). The solution was agitated on a VX-2500 multi-tube vortexer (VWR) for 2 hours at room temperature. Following agitation, the sample was filtrated on a glass-fiber filter (1 μm) and the eluate was diluted 200-fold with a mixture of acetonitrile: water (1:1). On each experimental occasion, nicardipine and imipramine were assessed as reference compounds for low and high solubility, respectively. All samples were assessed in triplicate and analyzed by LC-MS/MS using electrospray ionization against standards prepared in the same matrix.

Data set [4] concerns the target NPFF1 receptor (human NPFFR1-CHO cells) (Homo sapiens, UniProt Q9GZQ6). Nature of the data set: Lance cAMP functional Ke assay, NPFF1. Format: cell-based. How it is done: as §1, §6, §7, §8, §9
In data set [5] the target is T3, NPFF1 receptor (human NPFFR1 in CHO-RD-HGA16 cells) (Homo sapiens, UniProt Q9GZQ6).
T3 construct: expressed in transfected cells
Nature of the data set: Calcium mobilization functional Ke assay, NPFF1. Format: cell-based.

Data set [6] concerns the target T4, NPFF2 receptor (CHO-hNPFFR2 membranes) (Homo sapiens, UniProt Q9Y5X5).
T4 construct: purchased PerkinElmer RBHNF2M400UA; host or cells: CHO cell membranes
Nature of the data set: Radioligand binding assay, [125I]NPFF, NPFF2. How it is done: as §10, §11

Usually Ki stands for the equilibrium dissociation constant of an inhibitor or competing ligand from its target. Higher therefore signals weaker binding.

T3 sequence (Q9GZQ6 whole entry): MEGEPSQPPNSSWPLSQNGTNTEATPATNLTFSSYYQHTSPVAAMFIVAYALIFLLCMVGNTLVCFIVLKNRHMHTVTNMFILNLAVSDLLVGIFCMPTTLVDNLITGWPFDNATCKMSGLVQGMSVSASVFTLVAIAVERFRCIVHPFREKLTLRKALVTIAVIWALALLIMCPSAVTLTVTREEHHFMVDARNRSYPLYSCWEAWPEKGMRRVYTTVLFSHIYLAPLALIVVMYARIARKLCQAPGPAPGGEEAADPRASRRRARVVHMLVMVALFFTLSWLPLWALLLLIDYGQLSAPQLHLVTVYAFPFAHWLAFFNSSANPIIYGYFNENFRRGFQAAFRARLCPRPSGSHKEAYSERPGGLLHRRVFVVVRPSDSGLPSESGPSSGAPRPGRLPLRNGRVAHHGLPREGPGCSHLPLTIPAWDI
T4 sequence (Q9Y5X5 whole entry): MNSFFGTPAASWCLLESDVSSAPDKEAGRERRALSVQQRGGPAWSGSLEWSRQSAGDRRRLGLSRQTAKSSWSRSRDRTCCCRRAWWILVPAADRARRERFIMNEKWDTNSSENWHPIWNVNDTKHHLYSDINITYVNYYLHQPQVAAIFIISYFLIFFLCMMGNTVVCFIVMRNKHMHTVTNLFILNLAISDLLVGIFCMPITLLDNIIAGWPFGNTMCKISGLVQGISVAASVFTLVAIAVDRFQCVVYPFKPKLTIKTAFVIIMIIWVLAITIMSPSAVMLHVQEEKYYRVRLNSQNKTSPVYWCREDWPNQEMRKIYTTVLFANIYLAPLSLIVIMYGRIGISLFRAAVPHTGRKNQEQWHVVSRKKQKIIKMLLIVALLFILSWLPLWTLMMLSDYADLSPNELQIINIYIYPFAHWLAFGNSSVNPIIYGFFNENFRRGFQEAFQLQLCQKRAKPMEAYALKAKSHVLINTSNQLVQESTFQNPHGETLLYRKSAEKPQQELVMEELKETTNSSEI
Sequence of NPFF2 receptor (human NPFFR2-CHO cells) (Q9Y5X5 whole entry): as above
T1 sequence (Q9Y5X5 whole entry): as above
Sequence of NPFF1 receptor (human NPFFR1-CHO cells) (Q9GZQ6 whole entry): as the sequence (Q9GZQ6 whole entry) above
T2 sequence (Q9GZQ6 whole entry): as above

On to `COc1ccc(CN[C@H]2C[C@@H](C(=O)NCCc3ccc([N+](=O)[O-])cc3)N(Cc3ccccc3Cl)C2)cc1` [Compound 33], for which the efflux ratio at 90 min, 10 μM in the data set with P-gp (MDR1) came out at 1.3. Further, in the data set on MDCK-MDR1 cells (MDCK-MDR1), the “BBB permeability” value was “moderate”, the “rate B to A” value was 3.6e-06 cm/s and the “rate apical (A) to basolateral (B)” value was 2.7e-06 cm/s. Further, the “Pgp substrate” value in the data set on MDCK-MDR1 cells (from efflux ratio) is “not Pgp substrates; also recorded: not a Pgp substrate”. For the same compound, in the data set on Sprague-Dawley rats, the “effect on PWT” value is reported as “dose-dependently increased PWT”. Moreover, in [1], the “Hill slope of NPFF + compound curve, cAMP assay, NPFF2 cells” value worked out at 1. The “Hill slope of NPFF + compound curve, calcium mobilization, NPFF2 cells” value in [2] is 1.4. In data set [3], this compound gave a Ki of 610 ± 30 nM. In addition, the “solubility” value in the data set “Kinetic solubility assay” is “moderate”. Further, in data set [4], the “Hill slope of NPFF + compound curve, cAMP assay, NPFF1 cells” value worked out at 1.4. For the same compound, in [5], the “Hill slope of NPFF + compound curve, calcium mobilization, NPFF1 cells” value is on record as 1.4. Also, in data set [5] (calcium mobilization assay, read-out: NPFF1 Ke), the Kb was 245 nM and 250 nM. Also, the “preference / selectivity for NPFF1 over NPFF2” value in data set [5] (from calcium mobilization Ke values) is listed as about 3 fold. In [5] (standard incubation, competitive profile with longer incubations), the “type of antagonism in curve-shift assays” value was “insurmountable antagonism”. The affinity in data set [6] corresponds to a Ki of 1670 nM.
